For 10 compounds, GI50 and TGI results are on record in PubChem BioAssay (NCI).

Among the test systems are COLO 205 colon; HCT-15 colon; HOP-62 NSCLC; IGROV1 ovarian; M14 melanoma; MOLT-4 leukemia; NCI-H460 lung; SF-295 CNS; UACC-62 melanoma.
What all share (experiment): growth of human tumour cells (NCI), 48 h

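Protocol summary: plate cells (96-well), add compound at 5 concentrations, incubate 48 h, interpolate endpoints linearly. GI50 marks 50% less growth. TGI denotes the concentration required for complete inhibition of growth.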

`COc1ccc(OC)c(/C=C/C(=O)c2ccc3cc(OC)ccc3c2)c1`: the GI50 with COLO 205 colon was 6.81 µM; in the experiment with HOP-62 NSCLC it was 9.71 µM; with M14 melanoma, above 23.4 µM; with MOLT-4 leukemia, 7.74 µM; in the experiment on NCI-H460 lung, 10.3 µM; with SF-295 CNS, 1.5 µM. The GI50 in the experiment on UACC-62 melanoma was 5.52 µM. The TGI was above 14.8 µM in the experiment on COLO 205 colon; above 50 µM in the experiment on HCT-15 colon; above 50 µM in the experiment with HOP-62 NSCLC; above 14.5 µM in the experiment on IGROV1 ovarian; above 50 µM in the experiment with M14 melanoma; 26.1 µM in the experiment with MOLT-4 leukemia. Also, the TGI with NCI-H460 lung is above 50 µM; in the experiment with SF-295 CNS, 12.2 µM; in the experiment with UACC-62 melanoma, above 12.2 µM.
In the case of `NNC(=O)N/N=C1/C(=O)N(c2ccc(Cl)c(Cl)c2)C(=O)C(=O)C1c1nc2ccccc2o1` (configuration not stated), the TGI in the experiment on COLO 205 colon, in the experiment on HCT-15 colon, with HOP-62 NSCLC, in the experiment on IGROV1 ovarian, in the experiment on M14 melanoma and in the experiment with MOLT-4 leukemia was above 100 µM each time. Besides, the TGI in the experiment on SF-295 CNS and in the experiment with UACC-62 melanoma was above 100 µM each time.
As for `C#Cc1ccccc1N1C(=O)C=CC1=O`, the TGI with COLO 205 colon, with HOP-62 NSCLC, in the experiment on IGROV1 ovarian, in the experiment on M14 melanoma, with MOLT-4 leukemia and in the experiment on NCI-H460 lung was above 100 µM throughout. The TGI in the experiment on SF-295 CNS and with UACC-62 melanoma was above 100 µM throughout.
For the compound `CN/N=C(/CC(=O)c1sc(NNC(C)=O)nc1C)C(=O)Nc1ccc(OC)cc1OC`, the TGI with COLO 205 colon, in the experiment on HCT-15 colon, with HOP-62 NSCLC, in the experiment with IGROV1 ovarian, in the experiment on M14 melanoma and in the experiment with MOLT-4 leukemia was above 100 µM throughout. The TGI in the experiment on NCI-H460 lung, in the experiment on SF-295 CNS and with UACC-62 melanoma was above 100 µM in each case.
For the compound `COc1ccc2c(c1)C(=O)c1c-2n(CCCNCCO)c(=O)c2cc([N+](=O)[O-])ccc12`, the GI50 is 0.018 µM with COLO 205 colon; below 0.0211 µM in the experiment on HCT-15 colon; below 0.01 µM with HOP-62 NSCLC; 0.0283 µM in the experiment on IGROV1 ovarian; below 0.01 µM with M14 melanoma; below 0.01 µM in the experiment with MOLT-4 leukemia. Moreover, the GI50 in the experiment with NCI-H460 lung and with SF-295 CNS was below 0.01 µM in each case. The TGI was 2.01 µM with COLO 205 colon; 1.19 µM with HCT-15 colon; 0.145 µM in the experiment on HOP-62 NSCLC; 1.81 µM in the experiment with IGROV1 ovarian; 0.117 µM in the experiment with M14 melanoma; below 0.01 µM in the experiment with MOLT-4 leukemia. Further, the results for the TGI in the experiment on NCI-H460 lung and with SF-295 CNS were 0.0148 µM and 0.0115 µM, respectively.
Regarding `Nc1nc(N)c(-c2ccc(Cl)cc2)c(/C=C/c2ccc([N+](=O)[O-])cc2)n1`, the GI50 with COLO 205 colon was 6.01 µM; in the experiment on HCT-15 colon it was 3.97 µM; with HOP-62 NSCLC, 11.9 µM; in the experiment on IGROV1 ovarian it was 5.35 µM; in the experiment on M14 melanoma, 7.15 µM; in the experiment with MOLT-4 leukemia it was 8.27 µM. In addition, the results for the GI50 in the experiment on NCI-H460 lung and in the experiment on SF-295 CNS were 3.4 µM and 4.39 µM, respectively. Besides, the TGI in the experiment on COLO 205 colon is above 100 µM; in the experiment with HCT-15 colon it was above 100 µM; in the experiment with HOP-62 NSCLC it was 31.1 µM; with IGROV1 ovarian, 52.9 µM; in the experiment with M14 melanoma it was above 100 µM; with MOLT-4 leukemia, above 100 µM. The TGI with NCI-H460 lung and with SF-295 CNS was above 100 µM throughout.
Take `N#CC(CC(=O)O)=C(c1ccccc1)c1ccccc1`: the TGI with COLO 205 colon, in the experiment with HCT-15 colon, with HOP-62 NSCLC, in the experiment on IGROV1 ovarian, in the experiment on M14 melanoma and in the experiment on NCI-H460 lung was above 100 µM throughout. The TGI with SF-295 CNS and in the experiment on UACC-62 melanoma was above 100 µM throughout.
Turning to `O=C1OC(=O)C2C1C1C(c3ccccc3)=C(c3ccccc3)C2(O)C2C(=O)OC(=O)C12` (configuration not stated), the TGI with COLO 205 colon, in the experiment on HCT-15 colon, in the experiment on HOP-62 NSCLC, in the experiment with IGROV1 ovarian, in the experiment with M14 melanoma and in the experiment on MOLT-4 leukemia was above 100 µM each time. In addition, the TGI in the experiment with NCI-H460 lung, with SF-295 CNS and with UACC-62 melanoma was above 100 µM in each case.
Regarding `N#CC1([N+](=O)[O-])C=C1c1ccccc1` (configuration not stated), the TGI with COLO 205 colon, in the experiment on HCT-15 colon, with HOP-62 NSCLC, in the experiment with IGROV1 ovarian, with M14 melanoma and with MOLT-4 leukemia was above 100 µM each time. Moreover, the TGI in the experiment on NCI-H460 lung is above 100 µM; in the experiment on SF-295 CNS, above 100 µM; with UACC-62 melanoma, 66.3 µM.
For `C/C(=N\NS(=O)(=O)c1ccccc1)c1ccc[n+]([O-])n1`, the TGI in the experiment on HCT-15 colon, in the experiment with HOP-62 NSCLC, in the experiment on IGROV1 ovarian, in the experiment with M14 melanoma, in the experiment with MOLT-4 leukemia and in the experiment with NCI-H460 lung was above 100 µM in each case. Besides, the TGI with SF-295 CNS and in the experiment on UACC-62 melanoma was above 100 µM throughout.
